From patent publication EP3623369A1, “NOVEL MORPHOLINYL AMINE COMPOUNDS FOR THE TREATMENT OF AUTOIMMUNE DISEASE” (F. Hoffmann-La Roche AG, priority 2018, dated 2020)

Target: T1, human TLR8 (Homo sapiens, UniProt Q9NR97)
T1 sequence (Q9NR97 27-1041): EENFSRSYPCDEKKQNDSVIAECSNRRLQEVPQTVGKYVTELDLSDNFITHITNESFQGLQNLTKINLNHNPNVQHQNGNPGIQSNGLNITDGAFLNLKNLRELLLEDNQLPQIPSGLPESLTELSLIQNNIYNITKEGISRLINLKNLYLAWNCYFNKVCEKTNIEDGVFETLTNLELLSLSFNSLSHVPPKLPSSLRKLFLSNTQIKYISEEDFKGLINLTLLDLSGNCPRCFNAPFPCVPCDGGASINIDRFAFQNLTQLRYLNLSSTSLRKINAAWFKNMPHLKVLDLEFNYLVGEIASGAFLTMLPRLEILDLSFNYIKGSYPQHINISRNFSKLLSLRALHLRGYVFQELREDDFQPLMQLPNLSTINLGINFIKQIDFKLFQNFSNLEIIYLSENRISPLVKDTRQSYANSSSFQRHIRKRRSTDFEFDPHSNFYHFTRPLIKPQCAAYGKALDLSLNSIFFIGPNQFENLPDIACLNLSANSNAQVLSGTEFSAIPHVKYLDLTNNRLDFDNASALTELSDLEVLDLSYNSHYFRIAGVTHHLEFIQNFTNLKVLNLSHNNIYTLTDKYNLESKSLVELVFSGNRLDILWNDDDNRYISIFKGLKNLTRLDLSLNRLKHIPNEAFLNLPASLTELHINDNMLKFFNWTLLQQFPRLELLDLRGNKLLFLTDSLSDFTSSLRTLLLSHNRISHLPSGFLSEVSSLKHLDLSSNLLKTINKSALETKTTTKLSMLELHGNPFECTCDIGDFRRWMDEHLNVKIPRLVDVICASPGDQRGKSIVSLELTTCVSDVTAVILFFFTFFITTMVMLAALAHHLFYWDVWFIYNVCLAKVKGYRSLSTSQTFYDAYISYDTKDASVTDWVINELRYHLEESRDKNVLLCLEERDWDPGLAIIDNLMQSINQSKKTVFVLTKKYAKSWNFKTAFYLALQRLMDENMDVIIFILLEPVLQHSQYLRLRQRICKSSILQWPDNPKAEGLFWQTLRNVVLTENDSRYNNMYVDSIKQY
Experiment: HEK293-Blue-hTLR-8 cells assay (SEAP reporter, R848 stimulation)
Type: cell-based
Conditions: HEK293-Blue-hTLR8 cells, R848, 20 hrs; 0.003 is the lowest tested concentration; read-out: HEK/hTLR8 IC50
Outline: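 Antagonist mode: HEK293-Blue-hTLR8 cells at 250,000–450,000 cells/mL in DMEM with 10% FBS were treated with serially diluted compound (1% DMSO final) plus R848 (10 µL of 60 µM stock) for 20 h at 37 °C. NF-κB/AP-1-driven SEAP in supernatant measured with QUANTI-Blue, 2 h at 37 °C, absorbance 620–655 nm.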

SMILES | IC50 [nM]
C[C@@H]1CN(c2ccc(C#N)c3ncccc23)C[C@H](CN2Cc3ccc(N4CC(N)C4)cc3C2)O1 [Example 77, 5-[(2S,6R)-2-[[5-(3-aminoazetidin-1-yl)isoindolin-2-yl]methyl]-6-methyl-morpholin-4-yl]quinoline-8-carbonitrile] | 8
C[C@@H]1CN(c2ccc(C#N)c3ncccc23)C[C@H](CN2Cc3ccc(N4CCNCC4)cc3C(O)C2)O1 (stereo partly drawn) [Example 75, 5-[(2S,6R)-2-[(4-hydroxy-6-piperazin-1-yl-3,4-dihydro-1H-isoquinolin-2-yl)methyl]-6-methyl-morpholin-4-yl]quinoline-8-carbonitrile] | 4
C[C@@H]1CN(c2ccc(C#N)c3ncccc23)C[C@H](CN2Cc3ccc(N4CC5CCC(C4)N5)cc3C2)O1 [Example 42, 5-[(2S,6R)-2-[[5-(3,8-diazabicyclo[3.2.1]octan-3-yl)isoindolin-2-yl]methyl]-6-methyl-morpholin-4-yl]quinoline-8-carbonitrile] | 13
C[C@@H]1CN(c2ccc(Cl)c3nccnc23)C[C@H](CN2Cc3ccc(N4CCNCC4)cc3C2)O1 [Example 33, (2R,6S)-4-(8-chloroquinoxalin-5-yl)-2-methyl-6-[(5-piperazin-1-ylisoindolin-2-yl)methyl]morpholine] | 5
C[C@@H]1CN(c2ccc(C#N)c3ncccc23)C[C@H](CN2Cc3cnc(N4CCNCC4)nc3C2)O1 [Example 63, 5-[(2R,6S)-2-methyl-6-[(2-piperazin-1-yl-5,7-dihydropyrrolo[3,4-d]pyrimidin-6-yl)methyl]morpholin-4-yl]quinoline-8-carbonitrile] | < 3
C[C@@H]1CN(c2ccc(C#N)n3nccc23)C[C@H](CNCc2ccc(N3CCNCC3)cc2)O1 [Example 16, 4-[(2R,6S)-2-methyl-6-[[(4-piperazin-1-ylphenyl)methylamino]methyl]morpholin-4-yl]pyrazolo[1,5-a]pyridine-7-carbonitrile] | 16
C[C@@H]1CN(c2ccc(C#N)c3ncccc23)C[C@H](CNCc2ccccc2)O1 [ER-886509, reference compound] | 139
